Experimental data reported in the supplement of paper PMC10307832.

Key:
Test in all cases: relative viability (nuclei count vs DMSO), 5 days (fraction); higher = more cells survive
IU1-47 + Foretinib = compound: CC1=CC(=C(N1C2=CC=C(C=C2)Cl)C)C(=O)CN3CCCCC3 [IU1-47] + COc1cc2c(Oc3ccc(NC(=O)C4(C(=O)Nc5ccc(F)cc5)CC4)cc3F)ccnc2cc1OCCCN1CCOCC1 [Foretinib] (partner 0.25 µM)
In short: (§1)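 Values are medians from duplicate plates. Each reflects relative viability, defined as the nuclei count of treated wells over that of vehicle wells. Lung cancer cell lines in 1536-well plates were pin-tool dosed one day after seeding with one drug alone or with a fixed anchor-drug dose plus five library-drug doses (not always all listed) in √10 steps, then fixed, stained and imaged at 4× after 5 days.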

FG-4592 + OSI-027 = compound: Cc1nc(C(=O)NCC(=O)O)c(O)c2ccc(Oc3ccccc3)cc12 [FG-4592] + COc1cccc2cc(-c3nc([C@H]4CC[C@H](C(=O)O)CC4)n4ncnc(N)c34)[nH]c12 [OSI-027] (partner 0.5 µM)
In short: as §1

FG-4592 + Lapatinib = compound: Cc1nc(C(=O)NCC(=O)O)c(O)c2ccc(Oc3ccccc3)cc12 [FG-4592] + CS(=O)(=O)CCNCc1ccc(-c2ccc3ncnc(Nc4ccc(OCc5cccc(F)c5)c(Cl)c4)c3c2)o1 [Lapatinib] (partner 2 µM)
In short: as §1

FG-4592 + Pemetrexed = compound: Cc1nc(C(=O)NCC(=O)O)c(O)c2ccc(Oc3ccccc3)cc12 [FG-4592] + Nc1nc2[nH]cc(CCc3ccc(C(=O)N[C@@H](CCC(=O)O)C(=O)O)cc3)c2c(=O)[nH]1 [Pemetrexed] (partner 0.2 µM)
In short: as §1

Row | Cell Line | relative viability (IU1-47 + Foretinib; first compound 0.08 µM) | relative viability (IU1-47 + Foretinib; first compound 0.253 µM) | relative viability (IU1-47 + Foretinib; first compound 0.8 µM) | relative viability (IU1-47 + Foretinib; first compound 2.53 µM) | relative viability (IU1-47 + Foretinib; first compound 8 µM) | relative viability (FG-4592 + OSI-027; first compound 0.08 µM) | relative viability (FG-4592 + OSI-027; first compound 0.253 µM) | relative viability (FG-4592 + OSI-027; first compound 0.8 µM) | relative viability (FG-4592 + OSI-027; first compound 2.53 µM) | relative viability (FG-4592 + OSI-027; first compound 8 µM) | relative viability (FG-4592 + Lapatinib; first compound 0.08 µM) | relative viability (FG-4592 + Lapatinib; first compound 0.253 µM) | relative viability (FG-4592 + Lapatinib; first compound 0.8 µM) | relative viability (FG-4592 + Lapatinib; first compound 2.53 µM) | relative viability (FG-4592 + Lapatinib; first compound 8 µM) | relative viability (FG-4592 + Pemetrexed; first compound 0.08 µM) | relative viability (FG-4592 + Pemetrexed; first compound 0.253 µM) | relative viability (FG-4592 + Pemetrexed; first compound 0.8 µM) | relative viability (FG-4592 + Pemetrexed; first compound 2.53 µM) | relative viability (FG-4592 + Pemetrexed; first compound 8 µM)
1 | NCI-H1755 | 0.932 | 0.926 | 0.961 | 0.973 | 0.934 | 0.661 | 0.649 | 0.727 | 0.737 | 0.693 | 0.935 | 1.01 | 0.945 | 1.02 | 0.984 | 0.417 | 0.483 | 0.46 | 0.4 | 0.453
2 | NCI-H1793 | 0.75 | 0.764 | 0.765 |  | 0.688 | 0.223 | 0.229 |  | 0.178 | 0.254 | 0.592 | 0.468 |  | 0.646 | 0.62 |  | 0.95 |  | 0.833 | 0.782
3 | NCI-H1915 | 1.12 | 1.12 | 1.15 |  | 1.1 | 0.521 | 0.59 | 0.683 | 0.579 | 0.578 | 0.956 | 0.933 | 0.931 | 0.943 | 1.04 | 0.469 | 0.44 | 0.542 | 0.475 | 0.477
4 | NCI-H1944 | 1.03 | 0.954 | 0.905 | 0.824 | 0.759 | 0.401 | 0.367 | 0.412 | 0.325 | 0.364 | 0.712 | 0.759 | 0.576 | 0.71 | 0.768 | 0.608 | 0.703 | 0.567 | 0.602 | 0.606
5 | NCI-H1975 | 0.967 | 0.949 | 0.971 | 1.1 | 0.858 | 0.693 | 0.605 | 0.75 | 0.652 | 0.614 | 0.801 | 0.788 | 0.831 | 0.759 | 0.697 | 0.27 | 0.293 | 0.292 | 0.268 | 0.307
